The target of the first experiment is GST tagged truncated human mutant G2019S LRRK2 (Homo sapiens (Human), UniProt Q5S007, G2019S). As to the kind of experiment: LRRK2 Km ATP LanthaScreen Assay. Format: biochemical. Conditions: G2019S LRRK2, 134 μM ATP (Km ATP), mean values. The procedure: General Experimental Information: • Unless otherwise noted, all reactions are magnetically stirred. Unless otherwise noted, when diethyl ether is used in the experiments described below, it is Fisher ACS certified material and is stabilized with BHT. Unless otherwise noted, “concentrated” and/or “solvent removed under reduced pressure” means evaporating the solvent from a solution or mixture using a rotary evaporator or vacuum pump. Unless otherwise noted, flash chromatography is carried out on a Teledyne Isco (Lincoln, NE), Analogix (Burlington, WI), or Biotage (Stockholm, SWE) automated chromatography system using a commercially available cartridge as the column. Columns may be purchased from Teledyne Isco, Analogix, Biotage, Varian (Palo Alto, CA), or Supelco (Bellefonte, PA) and are usually filled with silica gel as the stationary phase. Reverse phase prep-HPLC conditions, where used, can be found at the end of each experimental section. Aqueous solutions were concentrated on a Genevac (Ipswich, ENG) or by freeze-drying/lyophilization. Unless otherwise noted, all LRRK2 pIC50 data presented in tables refers to the LRRK2 G2019S Km ATP LanthaScreen™ assay (Life Technologies Corp., Carlsbad, CA) that is described in the Biological Assay section.
Chain of GST tagged truncated human mutant G2019S LRRK2 (Q5S007 970-2527 G2019S): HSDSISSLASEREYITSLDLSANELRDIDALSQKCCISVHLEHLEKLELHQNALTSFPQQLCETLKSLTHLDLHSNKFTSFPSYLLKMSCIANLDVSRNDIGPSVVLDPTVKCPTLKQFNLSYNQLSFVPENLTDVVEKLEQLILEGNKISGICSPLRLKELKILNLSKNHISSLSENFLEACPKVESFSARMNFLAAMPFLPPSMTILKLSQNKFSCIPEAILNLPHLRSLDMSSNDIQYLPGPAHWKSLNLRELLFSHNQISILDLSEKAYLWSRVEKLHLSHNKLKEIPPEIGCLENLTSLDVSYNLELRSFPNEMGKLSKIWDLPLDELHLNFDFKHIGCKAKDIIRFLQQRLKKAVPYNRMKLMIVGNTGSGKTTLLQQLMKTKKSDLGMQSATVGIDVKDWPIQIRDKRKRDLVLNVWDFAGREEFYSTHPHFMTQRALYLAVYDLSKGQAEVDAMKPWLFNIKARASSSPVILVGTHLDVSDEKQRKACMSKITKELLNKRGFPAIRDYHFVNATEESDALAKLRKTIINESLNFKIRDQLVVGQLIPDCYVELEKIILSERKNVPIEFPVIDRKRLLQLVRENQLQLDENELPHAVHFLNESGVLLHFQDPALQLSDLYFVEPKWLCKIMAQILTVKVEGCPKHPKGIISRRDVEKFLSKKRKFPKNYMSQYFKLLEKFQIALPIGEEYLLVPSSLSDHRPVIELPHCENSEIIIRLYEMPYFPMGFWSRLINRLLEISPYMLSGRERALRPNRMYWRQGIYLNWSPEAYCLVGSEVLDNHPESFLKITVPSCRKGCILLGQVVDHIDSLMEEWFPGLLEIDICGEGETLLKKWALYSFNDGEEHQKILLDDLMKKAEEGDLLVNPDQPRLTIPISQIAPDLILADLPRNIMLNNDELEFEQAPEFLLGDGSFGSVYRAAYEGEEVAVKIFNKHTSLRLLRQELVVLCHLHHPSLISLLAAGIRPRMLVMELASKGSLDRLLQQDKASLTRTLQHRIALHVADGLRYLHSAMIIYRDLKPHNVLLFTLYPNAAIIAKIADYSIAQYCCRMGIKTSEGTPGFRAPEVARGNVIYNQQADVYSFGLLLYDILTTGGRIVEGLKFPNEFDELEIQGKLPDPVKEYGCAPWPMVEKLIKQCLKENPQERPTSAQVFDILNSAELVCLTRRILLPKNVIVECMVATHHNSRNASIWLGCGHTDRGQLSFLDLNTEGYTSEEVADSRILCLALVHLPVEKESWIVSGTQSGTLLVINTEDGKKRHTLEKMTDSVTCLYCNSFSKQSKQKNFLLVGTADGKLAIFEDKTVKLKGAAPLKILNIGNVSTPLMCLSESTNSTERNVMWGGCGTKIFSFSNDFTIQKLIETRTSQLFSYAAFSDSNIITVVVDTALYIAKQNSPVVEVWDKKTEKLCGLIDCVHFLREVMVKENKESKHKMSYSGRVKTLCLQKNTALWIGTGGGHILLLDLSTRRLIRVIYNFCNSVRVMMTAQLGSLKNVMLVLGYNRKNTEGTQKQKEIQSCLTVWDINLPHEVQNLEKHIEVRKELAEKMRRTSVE
The pIC50 values reported herein were measured as follows.
Biological Assay: LRRK2 Km ATP LanthaScreen™ Assay
Compound potency against LRRK2 kinase activity was determined using LanthaScreen™ technology from Life Technologies Corporation (Carlsbad, CA) using a GST20 tagged truncated human mutant G2019S LRRK2 in the presence of the fluorescein-labeled peptide substrate LRRKtide® (LRRK2 phosphorylated ezrin/radixin/moesin (ERM)), also from Life Technologies. The data presented for the Km ATP LanthaScreen™ Assay represents mean IC50 values based on several test results and may have reasonable deviations depending on the specific conditions and reagents used. Km is the Michaelis constant of an enzyme and is defined as the concentration of native substrate (ATP for a kinase) which permits the enzyme to achieve half Vmax (Vmax=rate of reaction when the enzyme is saturated with substrate). IC50 (half-maximal inhibitory concentration) represents the concentration of inhibitor required to inhibit LRRK2 kinase activity by 50%. Assays were performed in the presence of 134 μM ATP (Km ATP). Upon completion, the assay was stopped, and phosphorylated substrate detected with a terbium (Tb)-labeled anti-pERM antibody (cat. no. PV4898). The compound dose response was prepared by diluting a 10 mM stock of compound to a maximum concentration of 9.99 μM in 100% DMSO, followed by custom fold serial dilution in DMSO nine times. 20 nL of each dilution was spotted via a Labcyte Echo onto a 384-well black-sided plate (Corning 3575) followed by 15 μl of a 1.25 nM enzyme solution in 1× assay buffer (50 mM Tris pH 8.5, 10 mM MgCl2, 0.01% Brij-35, 1 mM EGTA, 2 mM dithiothreitol, 0.05 mM sodium orthovanadate). Following a 15-minute incubation period at RT, the kinase reaction was started with the addition of 5 μl of 400 nM fluorescein-labeled LRRKtide® (LRRK2 phosphorylated ezrin/radixin/moesin (ERM)) peptide substrate and 134 μM ATP solution in 1× assay buffer. The reaction was allowed to progress at ambient temperature for 90 minutes. The reaction was then stopped by the addition of 20 μl of TR-FRET Dilution Buffer (Life Technologies, Carlsbad, CA) containing 2 nM Tb-labeled anti-phospho LRRKtide® (LRRK2 phosphorylated ezrin/radixin/moesin (ERM)) antibody and 10 mM EDTA (Life Technologies, Carlsbad, CA). After an incubation period of 1 h at RT, the plate was read on an EnVision® multimode plate reader (Perkin Elmer, Waltham, MA) with an excitation wavelength of 337 nm (Laser) and a reading emission at both 520 and 495 nm. Compound IC50 values were interpolated from nonlinear regression best-fits of the log of the final compound concentration, plotted as a function of the 520/495-nm emission ratio using activity base “Abase”). […]
A general note: TR-FRET usually uses a lanthanide donor and a delayed reading to cut background.
Turning to `O=S1(=O)CC(N2CC[C@@H](c3cc4nc(Nc5cnn(C6CC6)c5Cl)ncc4cc3Cl)[C@H](F)C2)C1` (single isomer, unassigned), the “LRRK2 pIC50” value turned out to be 8.52.
For the molecule `O=S1(=O)CC(N2CC[C@H](c3cc4nc(Nc5cnn(C6CC6)c5Cl)ncc4cc3Cl)[C@@H](F)C2)C1` (single isomer, unassigned), the “LRRK2 pIC50” value came out at 9.02.
Regarding `Cc1c(Nc2ncc3cc(Cl)c(C4CCN(C5CC[C@H]5O)CC4)cc3n2)cnn1C1CC1` (single isomer, unassigned) [Ex-1.5, (1R,2S) or (1R,2R) or (1S,2S) or (1S,2R) 2-(4-(6-chloro-2-((1-cyclopropyl-5-methyl-1H-pyrazol-4-yl)amino)quinazolin-7-yl)piperidin-1-yl)cyclobutan-1-ol], the “LRRK2 pIC50” value is over 9.20.
On the same count and under the same terms, under `Cc1c(Nc2ncc3cc(Cl)c(C4CCN(C5CC[C@@H]5O)CC4)cc3n2)cnn1C1CC1` (single isomer, unassigned) [Ex-1.6, (1R,2S) or (1R,2R) or (1S,2S) or (1S,2R) 2-(4-(6-chloro-2-((1-cyclopropyl-5-methyl-1H-pyrazol-4-yl)amino)quinazolin-7-yl)piperidin-1-yl)cyclobutan-1-ol] stands over 9.20; under `C[C@@]1(N2CCC(c3cc4nc(Nc5cnn(C6CC6)c5Cl)ncc4cc3Cl)CC2)COC[C@@H]1O` (single isomer, unassigned) [Ex-1.7, (3R,4R)- or (3S,4S)-4-(4-(6-chloro-2-((5-chloro-1-cyclopropyl-1H-pyrazol-4-yl)amino)quinazolin-7-yl)piperidin-1-yl)-4-methyltetrahydrofuran-3-ol], over 9.20; under `Cc1c(Nc2ncc3cc(Cl)c(C4CCN([C@@]5(C)COC[C@H]5O)CC4)cc3n2)cnn1C1CC1` (single isomer, unassigned) [Ex-1.15, (3S,4S) or (3R,4R) 4-(4-(6-chloro-2-((1-cyclopropyl-5-methyl-1H-pyrazol-4-yl)amino)quinazolin-7-yl)piperidin-1-yl)-4-methyltetrahydrofuran-3-ol], 8.16.
On to `Cc1c(Nc2ncc3cc(Cl)c(C4CCN([C@]5(C)COC[C@@H]5O)CC4)cc3n2)cnn1C1CC1` (single isomer, unassigned) [Ex-1.16, (3S,4S) or (3R,4R) 4-(4-(6-chloro-2-((1-cyclopropyl-5-methyl-1H-pyrazol-4-yl)amino)quinazolin-7-yl)piperidin-1-yl)-4-methyltetrahydrofuran-3-ol], for which the “LRRK2 pIC50” value is reported as over 9.20.
Still for that read-out and setting: for `Cc1c(Nc2ncc3cc(Cl)c(C4CCN(C5(C)CCCC5O)CC4)cc3n2)cnn1C1CC1` (single isomer, unassigned) [Ex-1.19, (1R,2S) or (1S,2R) or (1S,2S) or (1R,2R) 2-(4-(6-chloro-2-((1-cyclopropyl-5-methyl-1H-pyrazol-4-yl)amino)quinazolin-7-yl)piperidin-1-yl)-2-methylcyclopentan-1-ol] the value was 7.59; for `Cc1c(Nc2ncc3cc(Cl)c(C4CCN(C5(C)CCCC5O)CC4)cc3n2)cnn1C1CC1` (single isomer, unassigned) [Ex-1.20, (1R,2S) or (1S,2R) or (1S,2S) or (1R,2R) 2-(4-(6-chloro-2-((1-cyclopropyl-5-methyl-1H-pyrazol-4-yl)amino)quinazolin-7-yl)piperidin-1-yl)-2-methylcyclopentan-1-ol], 8.84.

The experiment is the same for the next values; noted with them: G2019S LRRK2, 134 μM ATP (Km ATP), mean values; read-out: LRRK2 pIC50 (converted).
As to `O=S1(=O)CCC(N2CCC(c3cc4nc(Nc5cnn(CC(F)F)c5Cl)ncc4cc3Cl)CC2)C1` (racemic) [Ex-4.6, (S) and (R) 3-(4-(6-chloro-2-((5-chloro-1-(2,2-difluoroethyl)-1H-pyrazol-4-yl)amino)quinazolin-7-yl)piperidin-1-yl)tetrahydrothiophene 1,1-dioxide], the IC50 was under 0.631 nM.
In the case of `CCn1ncc(Nc2ncc3cc(Cl)c(C4CC45CC5)cc3n2)c1C` (single isomer, unassigned) [Ex-1.1, (S) or (R) 6-chloro-N-(1-ethyl-5-methyl-1H-pyrazol-4-yl)-7-(spiro[2.2]pentan-1-yl)quinazolin-2-amine], the IC50 is 11.7 nM.
For `CCn1ncc(Nc2ncc3cc(Cl)c(C4CC45CC5)cc3n2)c1C` (single isomer, unassigned) [Ex-1.2, (S) or (R) 6-chloro-N-(1-ethyl-5-methyl-1H-pyrazol-4-yl)-7-(spiro[2.2]pentan-1-yl)quinazolin-2-amine], the IC50 is 186 nM.
The same measure, in the same setting: under `CC(C)(O)CN1CCC(c2cc3nc(Nc4cnn(C5CC5)c4)ncc3cc2Cl)C1` (single isomer, unassigned) [Ex-1.4, (S) or (R) 1-(3-(6-chloro-2-((1-cyclopropyl-1H-pyrazol-4-yl)amino)quinazolin-7-yl)pyrrolidin-1-yl)-2-methylpropan-2-ol] stands 24 nM; under `C[C@@]1(N2CCC(c3cc4nc(Nc5cnn(C6CC6)c5Cl)ncc4cc3Cl)CC2)COC[C@@H]1O` (single isomer, unassigned) [Ex-1.8, (3R,4R)- or (3S,4S)-4-(4-(6-chloro-2-((5-chloro-1-cyclopropyl-1H-pyrazol-4-yl)amino)quinazolin-7-yl)piperidin-1-yl)-4-methyltetrahydrofuran-3-ol], 1.55 nM.
As for `CC(C)(O)CN1CCC(c2cc3nc(Nc4cnn(C5CC5)c4)ncc3cc2Cl)C1` (single isomer, unassigned) [Ex-1.9, (S) or (R) 1-(3-{6-chloro-2-[(1-cyclopropyl-1H-pyrazol-4-yl)amino]quinazolin-7-yl}pyrrolidin-1-yl)-2-methylpropan-2-ol], the IC50 is 30.2 nM.
Same read-out and setting: under `CC(C)(O)CN1CCC(c2cc3nc(Nc4cnn(C5CC5)c4)ncc3cc2Cl)C1` (single isomer, unassigned) [Ex-1.10, (S) or (R) 1-(3-{6-chloro-2-[(1-cyclopropyl-1H-pyrazol-4-yl)amino]quinazolin-7-yl}pyrrolidin-1-yl)-2-methylpropan-2-ol] stands 28.2 nM; under `C[C@@H]1CC(c2cc3nc(Nc4cnn(C5CC5)c4Cl)ncc3cc2Cl)CCN1C1COC1` (single isomer, unassigned) [Ex-1.11, (S) or (R) 6-chloro-N-(5-chloro-1-cyclopropyl-1H-pyrazol-4-yl)-7-(2-methyl-1-(oxetan-3-yl)piperidin-4-yl)quinazolin-2-amine], under 0.631 nM.
Still for that read-out and setting: under `C[C@H]1CC(c2cc3nc(Nc4cnn(C5CC5)c4Cl)ncc3cc2Cl)CCN1C1COC1` (single isomer, unassigned) [Ex-1.12, (S) or (R) 6-chloro-N-(5-chloro-1-cyclopropyl-1H-pyrazol-4-yl)-7-(2-methyl-1-(oxetan-3-yl)piperidin-4-yl)quinazolin-2-amine] stands 0.741 nM.
For `Cc1c(Nc2ncc3cc(Cl)c(C4CCN(C5COC5)[C@H](C)C4)cc3n2)cnn1C1CC1` (single isomer, unassigned) [Ex-1.13, (S) or (R) 6-chloro-N-(1-cyclopropyl-5-methyl-1H-pyrazol-4-yl)-7-(2-methyl-1-(oxetan-3-yl)piperidin-4-yl)quinazolin-2-amine], the IC50 was 0.776 nM.
The same measure, in the same setting: under `Cc1c(Nc2ncc3cc(Cl)c(C4CCN(C5COC5)[C@@H](C)C4)cc3n2)cnn1C1CC1` (single isomer, unassigned) [Ex-1.14, (S) or (R) 6-chloro-N-(1-cyclopropyl-5-methyl-1H-pyrazol-4-yl)-7-(2-methyl-1-(oxetan-3-yl)piperidin-4-yl)quinazolin-2-amine] stands under 0.631 nM.

These data come from patent US12540131B2 (Merck Sharp & Dohme LLC, priority 2019, dated 2026).
